{
  "source": "patent US10295537B2",
  "about": "“Biorecognition elements for rapid detection of biocontamination” (The United States of America, as represented by the …, priority 2017, dated 2019)",
  "key": {"P. stutzeri cells": {"tested_on": "P. stutzeri cells", "assay": "Fluorometry of P. stutzeri cells labeled with peptide-QD525 conjugates", "type": "cell-based", "conditions": "emission peak at 525 nm, 1×10^9 P. stutzeri cells", "experimental": "The emission peak fluorescence at 525 nm of 1×10^9 P. stutzeri cells labeled with peptide-QD525 conjugates was measured in a fluorometer and relative fluorescence units (“RFIU”) were compared (Table 6 and 7, above). Peptides OBP11 and OBP12 targeting OprF, and peptide OPP1 targeting Opr86 presented fluorescence levels that greatly surpassed the other selected peptides for the respective target. OPP1, OBP11, and OBP12 were selected for further characterization and validation.\n(§1) Bacterial stocks for experimentation were prepared by harvesting overnight grown bacterial cells by centrifugation at 11000×g for 15 min (at 4° C.), washed once with 1×PBS, pH 7.2, and re-suspended in 1×PBS to a concentration of 1×10^9 cells/mL. Bacterial titers were determined by measuring optical density at 600 nm and confirmed by colony counting on LB agar plates. Cell pellets produced by centrifuging 1 mL of the 1×10^9 cells/mL stock were re-suspended in 38 μL of 1×PBS and 62 μL of 2.4 μM peptide-QD was added to a final concentration of 1.5 μM. Cells were incubated for 30 min at 25° C. Cell pellets were washed three-times with 0.5 mL PBS and re-suspended in 500 μL PBS for fluorescence assays and imaging. Dilutions ranging from 1×10^9 cells to 1×10^4 cells were prepared using standard bacteriological techniques and 0.5 mL samples were used for fluorescence measurements.\n(§2) Emission spectra were obtained using Cary Eclipse Fluorimeter with excitation at 330 nm, scan rate of 120 nm/imin, and PMT voltage of 1000V. Spectra were corrected for background and dilution factor when appropriate."}, "Opr86": {"tested_on": "Opr86", "assay": "Solution biopanning against biotinylated Opr86 extracellular loop fragment, three rounds of selection", "type": "binding, P. aeruginosa", "conditions": "Bushnell-Haas pH 8.5 with 1% Jet-A", "experimental": "Generally, solution-phase biopanning was carried out as described by the manufacturer (New England Biolabs, Ipswich, Mass.) with some modifications, including the changing of pH from 7.0 to 5.5 and 8.5 and adding 1% v/v of Jet A fuel. The first round of selection was carried out by diluting Ph.D.-7 bacteriophage library 100-fold in 0.1% Tris buffer saline plus Tween 20 (0.1% TBST) at the appropriate pH for selection plus fuel. Subsequently, the phage library was incubated with 1 μg of N-terminal biotinylated target protein fragment (OprF1: […] (SEQ. ID No. 1), OprF2: ADIKNLADFMK QYPSTSTT (SEQ. ID No. 2), Opr86: […] STP (SEQ. ID No. 3)) for 1 hr at 25° C. Phage-protein complexes were captured with 50 μL of streptavidin magnetic microbeads, unbound phages were removed, and the pellet sample washed 10-times with 1 mL of 1× Tris buffer saline (“TBS”) plus 0.05% TBST to remove weakly bound phage particles. Bound bacteriophages were eluted from the beads by lowering the pH (0.2 M Glycine-HCl, pH 2.2) while rotating gently for 10 min at 25° C. After neutralization with 1 M Tris-HCl, pH 9.1, eluted phages were amplified by infection of E. coli strain ER 2738 grown in Luria-Bertani (“LB”) broth medium until early-log phase (OD600 0.1-0.5). Titer of the amplified phage (more than 10^10 pfu/mL) was determined by infection into E. coli ER2738 and subsequent growth in selective medium containing X gal/IPTG. Amplified phages from round 1 were pre-cleared with streptavidin-coated magnetic microbeads (50 μL) to further remove non-specific binders and then used as the input phage for round 2 of selection. Enrichment of the bacteriophage pool was achieved by performing […] of selection under the appropriate pH plus jet fuel condition. Genomic DNA from individual clones was sequenced by GenScript (Piscataway, N.J.).\nThe particular region of the Opr86 extracellular loop of sequence […] (SEQ. ID No. 3) was chemically synthesized with a biotin capture element and used as target epitope for BRE development in solution biopanning in Bushnell-Haas, pH 8.5, supplemented with 1% Jet-A. Following the previously established procedure for OprF, several unique Opr86 peptide BREs (“OPPs”) were identified after three rounds of selection (Table 7, above)."}, "[1]": {"tested_on": "Gram negative (P. stutzeri, P. alkaligenes, P. aeruginosa, A. venetianus) and Gram positive (Arthrobacter sp., Lynsinibacillus sp.) bacteria", "assay": "Fluorescence microscopy of fuel degrading bacteria labeled with peptide BRE-QD545", "type": "cell-based", "conditions": "1×10^9 cells, QD545, 1.5 μM", "experimental": "(§3) To characterize the specificity of the peptide BRE-QD545 conjugates for the intended bacterial groups, fluorescence imaging and fluorometric analysis were performed using different Gram negative and Gram positive fuel degrading bacteria. As such, cultures comprising 1×10^9 cells of Gram negative bacteria (P. stutzeri, P. alkaligenes, P. aeruginosa and A. venetianus) and Gram positive bacteria (Arthrobacter sp. and Lynsinibacillus sp.) were labeled with OPP1, OBP11 and OBP12 biofunctionalized QD545 and visualized using fluorescence microscopy (FIGS. 5-10) and the fluorescence quantified using a fluorometer (FIG. 11).\nas §1\n10 μL of the prepared sample was placed on a microscope slide, covered with a coverslip, and visualized on an Nikon Eclipse Ti-E inverted microscope equipped with X-Cite LED lamp, a fluorescence filter set (a bandpass exciter 405 nm and a longpass emission filter), a 1.25-numerical-aperture oil-immersion objective (DPlan 100×, Nikon). Images were captured by Nikon DS-sCMOS camera."}, "[2]": {"biological_target": "biotinylated bovine serum albumin (BSA) (Bos taurus, UniProt P02769)", "sequence (P02769 25-607)": "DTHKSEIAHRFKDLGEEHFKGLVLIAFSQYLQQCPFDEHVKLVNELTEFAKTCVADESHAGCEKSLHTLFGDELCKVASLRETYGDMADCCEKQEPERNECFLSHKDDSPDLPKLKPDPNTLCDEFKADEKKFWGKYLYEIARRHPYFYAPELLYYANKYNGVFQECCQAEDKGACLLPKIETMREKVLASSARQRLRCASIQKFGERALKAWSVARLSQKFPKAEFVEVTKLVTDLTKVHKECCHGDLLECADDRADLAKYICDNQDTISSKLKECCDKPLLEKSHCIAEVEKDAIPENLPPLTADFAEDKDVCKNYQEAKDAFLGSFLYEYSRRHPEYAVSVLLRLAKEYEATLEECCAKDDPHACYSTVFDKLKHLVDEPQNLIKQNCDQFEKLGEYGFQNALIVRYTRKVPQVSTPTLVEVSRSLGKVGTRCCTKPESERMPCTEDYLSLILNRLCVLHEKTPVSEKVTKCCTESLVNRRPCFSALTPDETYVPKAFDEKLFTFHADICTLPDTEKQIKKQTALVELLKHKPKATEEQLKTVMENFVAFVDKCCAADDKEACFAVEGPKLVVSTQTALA", "assay": "Biopanning against biotinylated BSA to identify target-unrelated peptides", "type": "binding", "conditions": "phage displaying the peptide, round 3", "source_text": "The phage library was then screened to identify target-unrelated peptides by using biotinylated bovine serum albumin (“BSA”) as a target for biopanning."}, "[3]": {"tested_on": "Gram negative bacteria (A. venetianus and Pseudomonas spp.)", "assay": "Fluorometry of fuel degrading bacteria labeled with peptide-QD545 conjugates (FIG. 11)", "type": "cell-based", "conditions": "for detection of Gram negative bacteria by fluorometer: 1×10^9 cells, QD545 conjugates, FIG. 11", "experimental": "as §3, §1, §2"}, "biotinylated OprF1": {"biological_target": "T1, biotinylated OprF1 (Pseudomonas aeruginosa, UniProt P13794)", "T1 construct": "Biotinylated at its N-terminal, an OprF1 synthetic peptide was used for solution biopanning screening", "T1 sequence (P13794 whole entry, looked up)": "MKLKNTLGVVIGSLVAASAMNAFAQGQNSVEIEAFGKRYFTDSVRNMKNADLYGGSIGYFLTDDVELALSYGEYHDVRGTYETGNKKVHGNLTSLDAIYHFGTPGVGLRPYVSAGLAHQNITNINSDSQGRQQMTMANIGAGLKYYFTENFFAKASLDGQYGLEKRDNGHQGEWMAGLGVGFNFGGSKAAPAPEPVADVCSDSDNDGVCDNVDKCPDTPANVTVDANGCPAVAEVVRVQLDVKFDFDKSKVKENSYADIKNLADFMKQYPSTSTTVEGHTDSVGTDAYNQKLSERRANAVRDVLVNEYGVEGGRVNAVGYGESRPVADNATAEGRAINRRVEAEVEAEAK", "assay": "Unamplified competitive solution biopanning of 14 monoclonal phages against biotinylated OprF1; percent abundance among 30 clones as relative affinity", "type": "binding, P. aeruginosa", "conditions": "Bushnell-Haas pH 8.5 with 1% v/v Jet-A, 30 randomly selected clones"}, "OprF1": {"biological_target": "T2, OprF1 (Pseudomonas aeruginosa, UniProt P13794)", "T2 sequence (P13794 whole entry, looked up)": "T1 sequence (P13794 whole entry, looked up)", "assay": "Solution-phase biopanning of Ph.D.-7 phage library against OprF1 with amplification, physiological conditions, clone abundance", "type": "binding, P. aeruginosa", "conditions": "four rounds with amplification, physiological conditions (pH 7)", "source_text": "Biotinylated at its N-terminal, an OprF1 synthetic peptide was used for solution biopanning screening of a commercially-available M13 bacteriophage library displaying heptameric peptides at the N-terminal of P3 coat protein. Solution-phase biopanning provided the benefit of including the availability of all the OprF1 aa residues for interaction with the potential peptide binder with lessened likelihood of isolating unspecific peptides that might bind to the capture element used to purify the phage-antigen complex (i.e., magnetic or protein G beads).\nGenerally, solution-phase biopanning was carried out as described by the manufacturer (New England Biolabs, Ipswich, Mass.) with some modifications, including the changing of pH from 7.0 to 5.5 and 8.5 and adding 1% v/v of Jet A fuel. The first round of selection was carried out by diluting Ph.D.-7 bacteriophage library 100-fold in 0.1% Tris buffer saline plus Tween 20 (0.1% TBST) at the appropriate pH for selection plus fuel. Subsequently, the phage library was incubated with 1 μg of N-terminal biotinylated target protein fragment (OprF1: […] (SEQ. ID No. 1), OprF2: ADIKNLADFMK QYPSTSTT (SEQ. ID No. 2), Opr86: […] STP (SEQ. ID No. 3)) for 1 hr at 25° C. […] Titer of the amplified phage (more than 10^10 pfu/mL) was determined by infection into E. coli ER2738 and subsequent growth in selective medium containing X gal/IPTG. […]"}},
  "data": [
    {"substance": "P R I R K S H (PRIRKSH; Artificial sequence obtained through biopanning.) [OPP1, Opr86 peptide BRE]", "values": [
      {"measurement": "Fluorescence (RFU)", "setting": "P. stutzeri cells", "result": "12258 ± 2060", "unit": "RFU"},
      {"measurement": "% Abundance", "setting": "Opr86", "result": 3, "unit": "%"},
      {"measurement": "labeling of bacteria in fluorescence micrographs", "setting": "[1]", "result": "specifically labeled Gram negative bacteria but not the Gram positive bacteria"}
    ]},
    {"substance": "IQTNPTM (Artificial sequence obtained through biopanning.)", "values": [
      {"measurement": "cross-reaction with BSA", "setting": "[2]", "result": "cross-react with BSA"}
    ]},
    {"substance": "PKRTPRH (Artificial sequence obtained through biopanning.) [OBP12]", "values": [
      {"measurement": "Fluorescence (RFU)", "setting": "P. stutzeri cells", "result": "6443 ± 957", "unit": "RFU"},
      {"measurement": "labeling of bacteria in fluorescence micrographs", "setting": "[1]", "result": "specifically labeled Gram negative bacteria but not the Gram positive bacteria"},
      {"measurement": "detection of Gram negative bacteria by fluorometer", "setting": "[3]", "result": "able to detect all Gram negative bacteria tested"},
      {"measurement": "LOD of P. stutzeri compared among all the BREs", "setting": "[3]; P. stutzeri", "result": "highest LOD"}
    ]},
    {"substance": "PPKINIM (Artificial sequence obtained through biopanning.) [target-unrelated, cross-reacts with BSA]", "values": [
      {"measurement": "% Abundance", "setting": "biotinylated OprF1", "result": 3, "unit": "%"},
      {"measurement": "abundance based on round 4 clones", "setting": "OprF1", "result": 80, "unit": "%"},
      {"measurement": "cross-reaction with BSA", "setting": "[2]", "result": "cross-react with BSA"}
    ]},
    {"substance": "PIKTNRK (Artificial sequence obtained through biopanning.) [OBP11]", "values": [
      {"measurement": "Fluorescence (RFU)", "setting": "P. stutzeri cells", "result": "5308 ± 501", "unit": "RFU"},
      {"measurement": "labeling of bacteria in fluorescence micrographs", "setting": "[1]", "result": "specifically labeled Gram negative bacteria but not the Gram positive bacteria"},
      {"measurement": "detection of Gram negative bacteria by fluorometer", "setting": "[3]", "result": "able to detect all Gram negative bacteria tested"}
    ]}
  ]
}
